{"source": "patent US20250319107A1", "about": "“USE OF CANNABIDIOL AND CLOBAZAM IN THE TREATMENT OF CHILDHOOD-ONSET EPILEPSY SYNDROMES” (GW Research Limited, priority 2021, published 2025)", "test_system": "patients with LGS or DS", "assay": "Phase 3 randomized controlled trials of CBD versus placebo, adverse reactions in DS and LGS patients", "format": "in vivo, human", "settings": "DS and LGS, 14-week treatment", "text": "Randomized, double-blind, parallel-group, trials of CBD versus placebo were undertaken and the adverse event experienced by the patients were collated and investigated.\nIn summary patients completed a 1-week screening period and a 4-week baseline period before they were randomized to receive CBD or equivalent volumes of placebo. Randomization was stratified by age.\nPatients began a 4-week dose escalation period, titrating up to their assigned dose, before continuing on a stable dose of blinded investigational medicinal product (IMP) for 12 or 14 weeks.\nDose escalation for each patient was subject to the investigator's assessment of safety and tolerability. If a dose became poorly tolerated, the investigator may consider temporarily or permanently reducing the dose for the remainder of the study.\nClinic visits occurred for screening (Day-35), baseline (Day-28), randomization (Day 1) and, on Days 15 and 29 during titration and on Days 43, 57, 71 (telephone) and 85 until the end of treatment (Day 113). Safety telephone calls were completed every two days during titration, one week after the end of titration and, for patients not entering the open label extension (OLE), weekly from Visit 10 to Visit 12.\nSafety and tolerability measures that were recorded included: adverse events; clinical laboratory parameters; 12-lead electrocardiogram (ECG); physical examination parameters (including height and weight); vital signs; Columbia-Suicide Severity Rating Scale (C-SSRS; 19+ years) or C-SSRS Children's (6-18 years) score, where applicable; number of inpatient hospitalizations due to epilepsy; abuse liability and effects on menstruation cycles (in females).\nTable 1.1 below lists the adverse reactions that were reported in DS and LGS patients treated with CBD during the 14-week treatment period in the Phase 3 controlled trials.", "key": {"[1]": {"settings": "All active (n = 456, includes 10 patients at 5 mg/kg/day)"}}}
{"smiles": "C=C(C)[C@@H]1CCC(C)=C[C@H]1c1c(O)cc(CCCCC)cc1O", "note": "[CBD, cannabidiol]", "values": [{"measurement": "Abnormal behavior, adverse reaction incidence", "setting": "10 mg/kg/day (n = 139)", "value": 0, "unit": "%"}, {"measurement": "Aggression, adverse reaction incidence", "setting": "10 mg/kg/day (n = 139)", "value": 2, "unit": "%"}, {"measurement": "Agitation, adverse reaction incidence", "setting": "10 mg/kg/day (n = 139)", "value": 0, "unit": "%"}, {"measurement": "Alanine aminotransferase increased, adverse reaction incidence", "setting": "10 mg/kg/day (n = 139)", "value": 4, "unit": "%"}, {"measurement": "Aspartate aminotransferase increased, adverse reaction incidence", "setting": "10 mg/kg/day (n = 139)", "value": 4, "unit": "%"}, {"measurement": "Decreased appetite, adverse reaction incidence", "setting": "10 mg/kg/day (n = 139)", "value": 17, "unit": "%"}, {"measurement": "Diarrhea, adverse reaction incidence", "setting": "10 mg/kg/day (n = 139)", "value": 13, "unit": "%"}, {"measurement": "Drooling, adverse reaction incidence", "setting": "10 mg/kg/day (n = 139)", "value": 0, "unit": "%"}, {"measurement": "Fatigue, adverse reaction incidence", "setting": "10 mg/kg/day (n = 139)", "value": 7, "unit": "%"}, {"measurement": "Gamma-glutamyl transferase increased, adverse reaction incidence", "setting": "10 mg/kg/day (n = 139)", "value": 4, "unit": "%"}, {"measurement": "Insomnia, adverse reaction incidence", "setting": "10 mg/kg/day (n = 139)", "value": 4, "unit": "%"}, {"measurement": "Irritability, adverse reaction incidence", "setting": "10 mg/kg/day (n = 139)", "value": 7, "unit": "%"}, {"measurement": "Lethargy, adverse reaction incidence", "setting": "10 mg/kg/day (n = 139)", "value": 3, "unit": "%"}, {"measurement": "Liver function test increased, adverse reaction incidence", "setting": "10 mg/kg/day (n = 139)", "value": 0, "unit": "%"}, {"measurement": "Pneumonia (grouped terms), adverse reaction incidence", "setting": "10 mg/kg/day (n = 139)", "value": 9, "unit": "%"}, {"measurement": "Pyrexia, adverse reaction incidence", "setting": "10 mg/kg/day (n = 139)", "value": 17, "unit": "%"}, {"measurement": "Rash, adverse reaction incidence", "setting": "10 mg/kg/day (n = 139)", "value": 2, "unit": "%"}, {"measurement": "Somnolence (grouped: somnolence, sedation), adverse reaction incidence", "setting": "10 mg/kg/day (n = 139)", "value": 26, "unit": "%"}, {"measurement": "Weight decreased, adverse reaction incidence", "setting": "10 mg/kg/day (n = 139)", "value": 1, "unit": "%"}, {"measurement": "Abnormal behavior, adverse reaction incidence", "setting": "20 mg/kg/day (n = 307)", "value": 3, "unit": "%"}, {"measurement": "Aggression, adverse reaction incidence", "setting": "20 mg/kg/day (n = 307)", "value": 5, "unit": "%"}, {"measurement": "Agitation, adverse reaction incidence", "setting": "20 mg/kg/day (n = 307)", "value": 1, "unit": "%"}, {"measurement": "Alanine aminotransferase increased, adverse reaction incidence", "setting": "20 mg/kg/day (n = 307)", "value": 7, "unit": "%"}, {"measurement": "Aspartate aminotransferase increased, adverse reaction incidence", "setting": "20 mg/kg/day (n = 307)", "value": 7, "unit": "%"}, {"measurement": "Decreased appetite, adverse reaction incidence", "setting": "20 mg/kg/day (n = 307)", "value": 24, "unit": "%"}, {"measurement": "Diarrhea, adverse reaction incidence", "setting": "20 mg/kg/day (n = 307)", "value": 21, "unit": "%"}, {"measurement": "Drooling, adverse reaction incidence", "setting": "20 mg/kg/day (n = 307)", "value": 3, "unit": "%"}, {"measurement": "Fatigue, adverse reaction incidence", "setting": "20 mg/kg/day (n = 307)", "value": 13, "unit": "%"}, {"measurement": "Gamma-glutamyl transferase increased, adverse reaction incidence", "setting": "20 mg/kg/day (n = 307)", "value": 5, "unit": "%"}, {"measurement": "Insomnia, adverse reaction incidence", "setting": "20 mg/kg/day (n = 307)", "value": 3, "unit": "%"}, {"measurement": "Irritability, adverse reaction incidence", "setting": "20 mg/kg/day (n = 307)", "value": 5, "unit": "%"}, {"measurement": "Lethargy, adverse reaction incidence", "setting": "20 mg/kg/day (n = 307)", "value": 6, "unit": "%"}, {"measurement": "Liver function test increased, adverse reaction incidence", "setting": "20 mg/kg/day (n = 307)", "value": 3, "unit": "%"}, {"measurement": "Pneumonia (grouped terms), adverse reaction incidence", "setting": "20 mg/kg/day (n = 307)", "value": 5, "unit": "%"}, {"measurement": "Pyrexia, adverse reaction incidence", "setting": "20 mg/kg/day (n = 307)", "value": 15, "unit": "%"}, {"measurement": "Rash, adverse reaction incidence", "setting": "20 mg/kg/day (n = 307)", "value": 5, "unit": "%"}, {"measurement": "Somnolence (grouped: somnolence, sedation), adverse reaction incidence", "setting": "20 mg/kg/day (n = 307)", "value": 29, "unit": "%"}, {"measurement": "Weight decreased, adverse reaction incidence", "setting": "20 mg/kg/day (n = 307)", "value": 4, "unit": "%"}, {"measurement": "Abnormal behavior, adverse reaction incidence", "setting": "[1]", "value": 2, "unit": "%"}, {"measurement": "Aggression, adverse reaction incidence", "setting": "[1]", "value": 4, "unit": "%"}, {"measurement": "Agitation, adverse reaction incidence", "setting": "[1]", "value": 1, "unit": "%"}, {"measurement": "Alanine aminotransferase increased, adverse reaction incidence", "setting": "[1]", "value": 6, "unit": "%"}, {"measurement": "Aspartate aminotransferase increased, adverse reaction incidence", "setting": "[1]", "value": 6, "unit": "%"}, {"measurement": "Decreased appetite, adverse reaction incidence", "setting": "[1]", "value": 21, "unit": "%"}, {"measurement": "Diarrhea, adverse reaction incidence", "setting": "[1]", "value": 18, "unit": "%"}, {"measurement": "Drooling, adverse reaction incidence", "setting": "[1]", "value": 2, "unit": "%"}, {"measurement": "Fatigue, adverse reaction incidence", "setting": "[1]", "value": 11, "unit": "%"}, {"measurement": "Gamma-glutamyl transferase increased, adverse reaction incidence", "setting": "[1]", "value": 4, "unit": "%"}, {"measurement": "Insomnia, adverse reaction incidence", "setting": "[1]", "value": 3, "unit": "%"}, {"measurement": "Irritability, adverse reaction incidence", "setting": "[1]", "value": 6, "unit": "%"}, {"measurement": "Lethargy, adverse reaction incidence", "setting": "[1]", "value": 5, "unit": "%"}, {"measurement": "Liver function test increased, adverse reaction incidence", "setting": "[1]", "value": 2, "unit": "%"}, {"measurement": "Pneumonia (grouped terms), adverse reaction incidence", "setting": "[1]", "value": 6, "unit": "%"}, {"measurement": "Pyrexia, adverse reaction incidence", "setting": "[1]", "value": 16, "unit": "%"}, {"measurement": "Rash, adverse reaction incidence", "setting": "[1]", "value": 4, "unit": "%"}, {"measurement": "Somnolence (grouped: somnolence, sedation), adverse reaction incidence", "setting": "[1]", "value": 29, "unit": "%"}, {"measurement": "Weight decreased, adverse reaction incidence", "setting": "[1]", "value": 3, "unit": "%"}]}
